Reference: US4524068A, “Cyclodextrin inclusion complex of piperonyl butoxide” (priority 1982, dated 1985)
Values after ≈ are worked out from the molar mass of the structure shown.

What was measured:
[1] = tested on: Sitophilus granarius; assay: 24 hours' mortality of tetrametrin and cinerin with synergist (Example 10); conditions: for mortality at 10 mg/disk: Sitophilus granarius, 24 h, read-out: 24 hours' mortality, Paralitical and killed insects
Procedure: (§1) As insecticide tetrametrin and cinerin I are used. The insecticidal effect is tested on 2-4 weeks' old Sitophilus granarius (Corn-Weevil) imago.
(§2) Piperonyl butoxide and the complex of piperonyl butoxide and cyclodextrin are applied as described in Example 9. The ratio of pyrethroide and synergistic agent amounts to 1:4 in all cases. The efficiency of insecticidal effect is proportional to the value of the 24 hours' mortality (killing effect).

[2] = tested on: Sitophilus granarius; assay: Knock-down effect of tetrametrin and cinerin I with synergist (Example 10); type: in vivo, Sitophilus granarius (Corn-Weevil); conditions: pyrethroide:synergistic agent 1:4
Procedure: as §1, §2

[3] = tested on: Drosophila melanogaster Meigen (vinegar midge); assay: 24 hours' mortality of tetrametrin on midges pre-fed with piperonyl butoxide or its complex (Example 8); type: in vivo; conditions: pre-fed with synergist
Procedure: The emulsion and suspension also contain 5% of sucrose.
Next day the 24 hours' mortality is determined.

[4] = physchem; conditions: water
[5] = cited from earlier work

Row | Structure (SMILES) | mortality at 10 mg/disk [1] [%] | 24 hours' mortality; Paralitical and killed insects ([1]; pyrethroide dose 1.250 mg/disk, pyrethroid:synergist 1:4) [%] | Knock-down effect ([2]; 90 minutes) | Knock-down effect ([2]; 170 minutes) | Knock-down effect ([2]; 210 minutes) | Knock-down effect ([2]; 300 minutes) | Mortality (24 hours mortality; killing effect) ([3]; tetrametrin dose 0.078 mg/disk) [%] | Mortality (24 hours mortality; killing effect) ([3]; tetrametrin dose 0.156 mg/disk) [%] | Mortality (24 hours mortality; killing effect) ([3]; tetrametrin dose 0.313 mg/disk) [%] | Mortality (24 hours mortality; killing effect) ([3]; tetrametrin dose 0.625 mg/disk) [%] | Mortality (24 hours mortality; killing effect) ([3]; tetrametrin dose 1.250 mg/disk) [%] | Mortality (24 hours mortality; killing effect) ([3]; tetrametrin dose 5.000 mg/disk) [%] | solubility at 1 h [4] [µg/mL] | solubility in organic solvents ([5]; organic solvents) | solubility in water ([5]; water)
1 | C/C=C\CC1=C(C)[C@@H](OC(=O)[C@@H]2[C@@H](C=C(C)C)C2(C)C)CC1=O [cinerin] | 31 | 0 | 6 | 9 | 8 | 2 |  |  |  |  |  |  |  |  | 
2 | CCCCOCCOCCOCc1cc2c(cc1CCC)OCO2 [piperonyl butoxide, 5-{[2-(2-butoxy-ethoxy)-ethoxy]-methyl}-6-propyl-1,3-benzodioxole] |  |  |  |  |  |  | 0 | 8 | 34 | 48 | 100 | 100 | 66 (≈ 195 µM) | soluble in organic solvents | substantially insoluble in water
3 | CC(C)=CC1C(C(=O)OCN2C(=O)C3=C(CCCC3)C2=O)C1(C)C (centres unmarked) [tetrametrin] | 41 |  | 0 | 9 | 9 | 6 |  |  |  |  |  |  |  |  | 
